Test results published in PubChem BioAssay AID1963441 (Molecular Pharmacology Branch, DTP, NCI, 2024).

Test system: NCI-H1876 complex spheroid growth, % test/control
Assay: Anticancer human tumor NCI-H1876 cell line growth inhibition [Asc];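 note: compound exposure lasted 7 days starting three days after seeding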;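 for viability, T/C: 100% = DMSO vehicle control wells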
Conditions: for IC50: curve of first compound; for viability, T/C: stronger effect = lower value
How it was run: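 Tumor cells were grown as multicellular spheroids with stromal HUVEC and mesenchymal stem cells and treated singly or in combination. Concentrations fell in half-log steps from the clinical Cmax, or from 10 microM where none was known.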

`Cc1nc(N2CCC3(CC2)COC(C)C3N)c(CO)nc1Sc1ccnc(N)c1Cl` (configuration not stated) + CCN1C(C(=O)NC23CCC(C(=O)O)(CC2)CC3)C(c2cccc(Cl)c2F)C2(C(=O)Nc3cc(Cl)ccc32)C12CCCCC2 showed an IC50 (second compound 0.00949 µM) of over 3 µM, an IC50 (second compound 0.03 µM) of over 3 µM and an IC50 (second compound 0.0949 µM) of over 3 µM. It also gave an IC50 (second compound 0.3 µM) of over 3 µM, an IC50 (second compound 0.949 µM) of over 3 µM and an IC50 (second compound 3 µM) of over 3 µM. For the same compound, the viability, T/C (second compound 0.00949 µM, first compound 0.00949 µM) was 89.1%, the viability, T/C (second compound 0.00949 µM, first compound 0.03 µM) was 90% and the viability, T/C (second compound 0.00949 µM, first compound 0.0949 µM) was 92.1%. It also gave a viability, T/C (second compound 0.00949 µM, first compound 0.3 µM) of 102%, a viability, T/C (second compound 0.00949 µM, first compound 0.949 µM) of 91.6% and a viability, T/C (second compound 0.00949 µM, first compound 3 µM) of 77.5%. The viability, T/C (second compound 0.03 µM, first compound 0.00949 µM) was 99.6%, the viability, T/C (second compound 0.03 µM, first compound 0.03 µM) was 104% and the viability, T/C (second compound 0.03 µM, first compound 0.0949 µM) was 118%. The viability, T/C (second compound 0.03 µM, first compound 0.3 µM) was 93.5%, the viability, T/C (second compound 0.03 µM, first compound 0.949 µM) was 92.4% and the viability, T/C (second compound 0.03 µM, first compound 3 µM) was 80.2%. The viability, T/C (second compound 0.0949 µM, first compound 0.00949 µM) was 103%, the viability, T/C (second compound 0.0949 µM, first compound 0.03 µM) was 113% and the viability, T/C (second compound 0.0949 µM, first compound 0.0949 µM) was 94.3%. For the same compound, the viability, T/C (second compound 0.0949 µM, first compound 0.3 µM) was 92.4%, the viability, T/C (second compound 0.0949 µM, first compound 0.949 µM) was 93.9% and the viability, T/C (second compound 0.0949 µM, first compound 3 µM) was 87.3%. For the same compound, the viability, T/C (second compound 0.3 µM, first compound 0.00949 µM) was 109%, the viability, T/C (second compound 0.3 µM, first compound 0.03 µM) was 104% and the viability, T/C (second compound 0.3 µM, first compound 0.0949 µM) was 93.4%. It also gave a viability, T/C (second compound 0.3 µM, first compound 0.3 µM) of 99.5%, a viability, T/C (second compound 0.3 µM, first compound 0.949 µM) of 88.7% and a viability, T/C (second compound 0.3 µM, first compound 3 µM) of 88.7%. For the same compound, the viability, T/C (second compound 0.949 µM, first compound 0.00949 µM) was 108%, the viability, T/C (second compound 0.949 µM, first compound 0.03 µM) was 106% and the viability, T/C (second compound 0.949 µM, first compound 0.0949 µM) was 103%. It also gave a viability, T/C (second compound 0.949 µM, first compound 0.3 µM) of 109%, a viability, T/C (second compound 0.949 µM, first compound 0.949 µM) of 105% and a viability, T/C (second compound 0.949 µM, first compound 3 µM) of 87%. The viability, T/C (second compound 3 µM, first compound 0.00949 µM) was 108%, the viability, T/C (second compound 3 µM, first compound 0.03 µM) was 97.9% and the viability, T/C (second compound 3 µM, first compound 0.0949 µM) was 74%. The viability, T/C (second compound 3 µM, first compound 0.3 µM) was 90.3%, the viability, T/C (second compound 3 µM, first compound 0.949 µM) was 90.1% and the viability, T/C (second compound 3 µM, first compound 3 µM) was 67%.
